The NIST ThermoML archive (doi:10.1007/s10765-005-5567-5)

Assay: mn = molality of the nth substance listed, in mol/kg
Conditions: Liquid; for viscosity: Capillary tube (Ostwald / Ubbelohde) method; for thermal conductivity: Coaxial cylinder method

O=S(=O)([O-])[O-].[K+].[K+] [potassium sulfate] + O
Conditions	thermal conductivity, 10000 kPa [W/m/K]	thermal conductivity, 30000 kPa [W/m/K]	viscosity, 10 kPa [mPa·s]	viscosity, 20 kPa [mPa·s]	viscosity, 30 kPa [mPa·s]
397.25 K, m1 = 0.305	–	–	–	0.2531	0.2565
398.55 K, m1 = 0.0658	–	–	0.2289	0.2321	0.236
422.05 K, m1 = 0.407	–	–	0.2131	0.2154	0.2189
423 K, m1 = 0.499	0.678	0.69	–	–	–
423.3 K, m1 = 0.782	0.671	0.684	–	–	–
423.55 K, m1 = 0.305	–	–	0.204	0.2068	0.2096
423.6 K, m1 = 0.239	0.683	0.696	–	–	–
423.85 K, m1 = 0.0658	–	–	0.1881	0.1926	0.196
425.45 K, m1 = 0.2055	–	–	0.1946	0.1974	0.2
446.85 K, m1 = 0.407	–	–	0.1811	0.184	0.1867
447.35 K, m1 = 0.0658	–	–	0.1613	0.1645	0.166
448.1 K, m1 = 0.782	0.665	0.681	–	–	–
448.35 K, m1 = 0.2055	–	–	0.1679	0.1705	0.1732
448.55 K, m1 = 0.305	–	–	0.1735	0.1769	0.179
448.7 K, m1 = 0.239	0.678	0.691	–	–	–
449.8 K, m1 = 0.499	0.672	0.686	–	–	–
470.75 K, m1 = 0.407	–	–	0.1586	0.1605	0.1641
472.05 K, m1 = 0.0658	–	–	0.1403	0.1436	0.146
472.9 K, m1 = 0.499	0.659	0.676	–	–	–
473.4 K, m1 = 0.239	0.665	0.681	–	–	–
473.8 K, m1 = 0.782	0.652	0.671	–	–	–
475.85 K, m1 = 0.305	–	–	0.1492	0.1521	0.1545
477.45 K, m1 = 0.2055	–	–	0.143	0.1456	0.1482
496.35 K, m1 = 0.0658	–	–	0.1244	0.1276	0.13
497.45 K, m1 = 0.2055	–	–	0.1294	0.1322	0.1348
498.3 K, m1 = 0.499	0.639	0.657	–	–	–
498.5 K, m1 = 0.239	0.644	0.664	–	–	–
498.55 K, m1 = 0.407	–	–	0.1388	0.1409	0.1444
498.6 K, m1 = 0.782	0.632	0.65	–	–	–
499.95 K, m1 = 0.305	–	–	0.1332	0.1369	0.14
523.05 K, m1 = 0.2055	–	–	0.1162	0.1191	0.1219
523.2 K, m1 = 0.499	0.61	0.63	–	–	–
523.3 K, m1 = 0.239	0.617	0.637	–	–	–
523.85 K, m1 = 0.407	–	–	0.1248	0.1286	0.1307
523.9 K, m1 = 0.782	0.602	0.623	–	–	–
524.45 K, m1 = 0.0658	–	–	0.1097	0.1135	0.116
527.35 K, m1 = 0.305	–	–	0.1185	0.1216	0.1243
541.55 K, m1 = 0.407	–	–	0.1171	0.12	0.1236
545.05 K, m1 = 0.0658	–	–	0.1008	0.1045	0.1072
547.9 K, m1 = 0.239	0.584	0.61	–	–	–
548.2 K, m1 = 0.499	0.577	0.604	–	–	–
548.45 K, m1 = 0.305	–	–	0.1087	0.1119	0.115
548.5 K, m1 = 0.782	0.57	0.598	–	–	–
550.55 K, m1 = 0.2055	–	–	0.1039	0.1072	0.1105
571.55 K, m1 = 0.0658	–	–	0.0902	0.094	0.0972
573.2 K, m1 = 0.499	0.534	0.568	–	–	–
573.2 K, m1 = 0.782	0.525	0.56	–	–	–
573.35 K, m1 = 0.305	–	–	0.0976	0.1016	0.1035
573.8 K, m1 = 0.239	0.54	0.574	–	–	–
574.35 K, m1 = 0.2055	–	–	0.094	0.0973	0.1014
575.25 K, m1 = 0.407	–	–	0.1021	0.1067	0.1102
